In ChEMBL document CHEMBL1201862, “PubChem BioAssay data set” (2004):
The source made the active and inactive calls.

Experiments:
[1] = molecular target: T1, Nuclear receptor subfamily 0 group B member 1 (Homo sapiens, UniProt P51843); test: Luminescence-based cell-based high throughput dose response assay for inhibitors of the orphan nuclear receptor subfamily 0, group B, member 1 (DAX1; NR0B1). [Related pubchem assays (depositor defined):AID504766, AID504790]; assay type: functional
T1 sequence (P51843 whole entry): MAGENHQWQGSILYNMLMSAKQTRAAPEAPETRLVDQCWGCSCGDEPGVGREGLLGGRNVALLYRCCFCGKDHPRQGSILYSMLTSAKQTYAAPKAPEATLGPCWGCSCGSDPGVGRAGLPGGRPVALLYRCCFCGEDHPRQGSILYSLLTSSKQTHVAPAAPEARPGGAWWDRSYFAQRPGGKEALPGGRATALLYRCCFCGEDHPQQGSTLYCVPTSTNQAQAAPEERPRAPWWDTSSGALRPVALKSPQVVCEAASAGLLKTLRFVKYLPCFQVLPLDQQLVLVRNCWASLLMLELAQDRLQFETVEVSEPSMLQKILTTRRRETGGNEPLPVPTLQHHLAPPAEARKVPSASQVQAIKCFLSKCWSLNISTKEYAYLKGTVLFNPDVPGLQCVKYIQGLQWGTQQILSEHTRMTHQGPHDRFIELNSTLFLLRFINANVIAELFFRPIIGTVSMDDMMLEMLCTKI

HEK293 [2] = test: cells; assay type: functional, cell-based; settings: Homo sapiens
[3] = cytotoxicity toward NIH3T3 fibroblasts, dose response, counter-screen, cell-based, ATP luminescence, mouse fibroblasts (AID 2010); assay type: functional;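 further: cells exposed to compound for about 90 hours before reading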
[4] = inhibitors of intracellular T. cruzi replication, confirmation, NIH3T3 host cells, beta-gal luminescence (AID 2044); assay type: functional, cell-based;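 further: intracellular parasites grown in NIH/3T3 mouse fibroblasts as host cells; luminescent beta-galactosidase reporter signal from transgenic T. cruzi replicating inside host cells; inhibitors lower the luminescence signal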
[5] = molecular target: Beta-2 adrenergic receptor (Homo sapiens, UniProt P07550); test: beta2AR agonists driving receptor internalization, dose response, cell-based, FAP fluorogen, flow cytometry, cherry pick 1 (AID 588763); assay type: functional
Beta-2 adrenergic receptor, sequence (P07550 whole entry): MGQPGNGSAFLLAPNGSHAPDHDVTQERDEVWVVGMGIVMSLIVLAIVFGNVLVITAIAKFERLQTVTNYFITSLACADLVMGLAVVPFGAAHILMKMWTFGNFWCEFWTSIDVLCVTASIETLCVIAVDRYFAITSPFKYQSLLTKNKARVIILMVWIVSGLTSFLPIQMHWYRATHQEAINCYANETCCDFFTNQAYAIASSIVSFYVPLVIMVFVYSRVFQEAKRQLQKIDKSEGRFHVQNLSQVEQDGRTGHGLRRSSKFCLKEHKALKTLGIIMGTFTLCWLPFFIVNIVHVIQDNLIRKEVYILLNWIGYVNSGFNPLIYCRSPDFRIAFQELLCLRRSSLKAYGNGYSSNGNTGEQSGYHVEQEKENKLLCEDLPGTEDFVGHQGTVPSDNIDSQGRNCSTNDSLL

BJ = test: cytotoxicity toward Ras-transformed BJeLR fibroblasts, dose response, cell-based, alamar blue fluorescence, cherrypicked samples (AID 2631); assay type: functional; settings: Homo sapiens;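 further: confirmatory dose-response assay in RAS-dependent BJ fibroblasts engineered with TERT, LT and ST, with cytotoxicity read by fluorescence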
[6] = inhibitors of firefly luciferase expression or activity, dose response, H4 neuroglioma cells, luminescence (AID 1990); assay type: functional, cell-based
[7] = Luminescence Cell-Based Dose Response HTS to Identify Inhibitors of 5'UTR Stem-Loop Driven Prion Protein mRNA Translation in H4 Neuroglioblastoma Cells. [Related pubchem assays: 1827 (Project Summary), 1813 (Primary HTS)]; assay type: functional
[8] = inhibitors of SNCA 5'UTR-driven reporter translation, confirmation, H4 neuroglioma cells, luminescence (AID 1988); assay type: functional, cell-based
[9] = NIH-3T3 fibroblast cytotoxicity, dose response, cytotoxicity control, cell-based, fluorescence, Alamar Blue, secondary assay (AID 2327); assay type: functional;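 further: NIH-3T3 mouse fibroblasts cultured with fluconazole at 8 µg/mL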
Mucolipin-3 = molecular target: T2, Mucolipin-3 (Homo sapiens, UniProt Q8TDD5); test: Dose response cell-based high-throughput screening assay for agonists of the transient receptor potential channel ML3 (TRPML3). [Related pubchem assays: 1526, 1424, 1448 ]; assay type: functional
T2 sequence (Q8TDD5 whole entry): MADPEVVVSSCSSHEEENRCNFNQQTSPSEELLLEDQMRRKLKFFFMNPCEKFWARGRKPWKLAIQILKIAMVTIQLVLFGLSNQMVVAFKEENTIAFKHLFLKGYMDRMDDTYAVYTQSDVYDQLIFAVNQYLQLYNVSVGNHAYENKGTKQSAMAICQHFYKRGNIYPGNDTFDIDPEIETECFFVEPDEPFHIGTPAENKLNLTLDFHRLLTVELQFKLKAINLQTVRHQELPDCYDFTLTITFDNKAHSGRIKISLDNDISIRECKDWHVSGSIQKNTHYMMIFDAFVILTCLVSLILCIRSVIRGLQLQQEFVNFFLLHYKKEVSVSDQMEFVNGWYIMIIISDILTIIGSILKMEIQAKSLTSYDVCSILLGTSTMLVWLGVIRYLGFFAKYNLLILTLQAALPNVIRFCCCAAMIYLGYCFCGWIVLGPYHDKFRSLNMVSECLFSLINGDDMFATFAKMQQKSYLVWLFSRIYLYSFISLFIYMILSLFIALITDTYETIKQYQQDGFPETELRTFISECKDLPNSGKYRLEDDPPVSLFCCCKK

[10] = molecular target: ATP-dependent molecular chaperone HSP82 (Candida albicans (strain WO-1) (Yeast), UniProt C4YTQ8); test: loss of DOC-induced GRE-beta-galactosidase reporter signal, dose response, Hsp90 inhibitor project, S. cerevisiae, luminescence (AID 2400); assay type: functional, cell-based;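 further: beta-galactosidase luminescence from glucocorticoid response element reporter as proxy for Hsp90 function; inhibitor potency where signal loss means Hsp90 inhibition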
ATP-dependent molecular chaperone HSP82, sequence (C4YTQ8 whole entry): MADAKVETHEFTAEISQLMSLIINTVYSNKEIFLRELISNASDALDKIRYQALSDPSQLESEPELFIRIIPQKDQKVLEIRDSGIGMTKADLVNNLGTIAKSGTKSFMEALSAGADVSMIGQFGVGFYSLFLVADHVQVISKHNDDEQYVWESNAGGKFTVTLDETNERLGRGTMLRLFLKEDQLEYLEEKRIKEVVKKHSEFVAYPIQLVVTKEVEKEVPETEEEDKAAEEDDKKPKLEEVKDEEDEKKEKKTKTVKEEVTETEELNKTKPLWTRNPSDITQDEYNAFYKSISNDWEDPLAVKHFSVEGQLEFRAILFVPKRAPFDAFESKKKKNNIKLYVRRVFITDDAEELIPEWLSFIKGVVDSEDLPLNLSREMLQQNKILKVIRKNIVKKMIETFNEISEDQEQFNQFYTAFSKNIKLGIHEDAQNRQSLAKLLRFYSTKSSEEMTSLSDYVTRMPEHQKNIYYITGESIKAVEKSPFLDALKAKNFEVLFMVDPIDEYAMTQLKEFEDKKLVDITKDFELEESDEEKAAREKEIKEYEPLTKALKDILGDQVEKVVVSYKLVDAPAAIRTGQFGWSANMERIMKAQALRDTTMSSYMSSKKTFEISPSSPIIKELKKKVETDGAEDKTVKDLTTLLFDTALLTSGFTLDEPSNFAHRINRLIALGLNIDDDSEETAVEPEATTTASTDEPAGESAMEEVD

Ion channel NompC = Ion channel NompC (Danio rerio, UniProt Q7T1G6); test: Fluorescence counterscreen assay for TRPML3 agonists: dose response cell-based high-throughput screening assay to identify agonists of the transient receptor potential channel N1 (TRPN1). [Related pubchem assays: 1526, 1424, 1448 ]; assay type: functional
Ion channel NompC, sequence (Q7T1G6 whole entry): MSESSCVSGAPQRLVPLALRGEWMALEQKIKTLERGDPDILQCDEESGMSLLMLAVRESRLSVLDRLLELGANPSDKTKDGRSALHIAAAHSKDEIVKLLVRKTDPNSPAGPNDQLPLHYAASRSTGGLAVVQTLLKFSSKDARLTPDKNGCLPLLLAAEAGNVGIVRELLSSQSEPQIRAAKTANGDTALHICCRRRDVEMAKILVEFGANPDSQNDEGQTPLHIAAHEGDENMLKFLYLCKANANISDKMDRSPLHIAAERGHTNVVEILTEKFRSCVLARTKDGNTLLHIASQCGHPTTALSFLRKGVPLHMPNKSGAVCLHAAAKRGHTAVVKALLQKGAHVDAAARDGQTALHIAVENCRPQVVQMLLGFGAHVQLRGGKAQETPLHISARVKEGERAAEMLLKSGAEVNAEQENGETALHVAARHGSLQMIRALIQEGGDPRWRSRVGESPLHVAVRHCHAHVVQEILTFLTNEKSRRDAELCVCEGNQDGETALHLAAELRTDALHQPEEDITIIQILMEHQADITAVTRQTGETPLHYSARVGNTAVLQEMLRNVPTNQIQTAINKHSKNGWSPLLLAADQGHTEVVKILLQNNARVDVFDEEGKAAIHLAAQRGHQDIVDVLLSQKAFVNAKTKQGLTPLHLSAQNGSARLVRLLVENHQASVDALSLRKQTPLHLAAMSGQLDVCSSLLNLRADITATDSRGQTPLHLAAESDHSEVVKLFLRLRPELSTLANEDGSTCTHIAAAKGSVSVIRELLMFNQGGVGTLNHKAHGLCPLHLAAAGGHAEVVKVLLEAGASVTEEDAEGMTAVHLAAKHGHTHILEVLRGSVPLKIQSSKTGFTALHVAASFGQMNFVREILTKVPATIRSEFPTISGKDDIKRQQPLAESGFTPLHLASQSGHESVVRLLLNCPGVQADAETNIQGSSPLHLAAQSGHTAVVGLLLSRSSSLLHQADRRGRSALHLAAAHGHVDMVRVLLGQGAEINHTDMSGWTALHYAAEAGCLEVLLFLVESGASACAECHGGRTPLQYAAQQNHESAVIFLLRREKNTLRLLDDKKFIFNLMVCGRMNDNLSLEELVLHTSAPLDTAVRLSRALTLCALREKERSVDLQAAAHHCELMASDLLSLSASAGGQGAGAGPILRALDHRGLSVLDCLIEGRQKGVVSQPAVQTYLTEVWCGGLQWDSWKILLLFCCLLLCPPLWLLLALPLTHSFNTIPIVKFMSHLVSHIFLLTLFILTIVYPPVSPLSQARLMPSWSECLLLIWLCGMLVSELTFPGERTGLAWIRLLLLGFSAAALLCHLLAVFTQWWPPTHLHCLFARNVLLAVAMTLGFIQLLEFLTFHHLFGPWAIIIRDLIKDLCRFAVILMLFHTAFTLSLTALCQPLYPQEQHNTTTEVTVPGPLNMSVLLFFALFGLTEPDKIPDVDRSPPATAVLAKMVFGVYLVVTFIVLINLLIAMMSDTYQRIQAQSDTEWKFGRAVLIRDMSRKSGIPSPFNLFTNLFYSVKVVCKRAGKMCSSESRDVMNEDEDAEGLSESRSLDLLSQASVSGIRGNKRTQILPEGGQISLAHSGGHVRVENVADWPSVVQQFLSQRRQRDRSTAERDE

[11] = C. albicans growth with fluconazole, confirmation, fluorescence, retest (AID 2467); assay type: functional, cell-based
[12] = molecular target: Serine/threonine-protein phosphatase (Candida dubliniensis (strain CD36 / CBS 7987 / NCPF 3949 / NRRLY-17841) (Yeast), UniProt B9W6M3); test: calcineurin pathway inhibitors in yeast reporter, dose response, S. cerevisiae, CDRE-lacZ, luminescence, secondary (AID 2388); assay type: functional, cell-based;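 further: yeast reporter cells carrying a calcineurin-responsive lacZ construct stimulated with calcium chloride; luminescent beta-galactosidase reporter signal in whole cells rather than isolated phosphatase activity; potency for inhibition where a drop in reporter signal means calcineurin blockade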
Serine/threonine-protein phosphatase, sequence (B9W6M3 whole entry): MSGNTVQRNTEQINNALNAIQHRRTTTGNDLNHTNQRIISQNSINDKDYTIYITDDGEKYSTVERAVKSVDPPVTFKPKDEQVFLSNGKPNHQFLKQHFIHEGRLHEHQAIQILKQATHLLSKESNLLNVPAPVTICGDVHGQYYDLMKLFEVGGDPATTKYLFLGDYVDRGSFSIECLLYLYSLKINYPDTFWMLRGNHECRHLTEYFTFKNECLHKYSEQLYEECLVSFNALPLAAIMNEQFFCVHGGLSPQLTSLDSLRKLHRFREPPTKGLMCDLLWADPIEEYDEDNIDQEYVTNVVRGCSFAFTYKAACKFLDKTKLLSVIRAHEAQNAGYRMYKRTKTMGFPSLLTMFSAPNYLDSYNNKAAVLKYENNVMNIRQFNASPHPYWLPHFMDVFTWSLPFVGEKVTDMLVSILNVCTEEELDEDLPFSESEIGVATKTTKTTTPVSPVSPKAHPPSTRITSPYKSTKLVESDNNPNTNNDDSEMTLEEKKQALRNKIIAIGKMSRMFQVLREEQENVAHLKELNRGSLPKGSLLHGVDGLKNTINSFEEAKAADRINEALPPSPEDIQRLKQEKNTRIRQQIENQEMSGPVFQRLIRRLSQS

HEK293 [13] = test: HEK cell cytotoxicity by LDH release, dose response, cytotoxicity control for IDE activator project, fluorescence, HEK cells (AID 588440); assay type: functional, cell-based; settings: Homo sapiens;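 further: cytotoxicity by LDH release measuring loss of membrane integrity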
HEK293 [14] = test: optical interference in Abeta FP readout, dose response, artefact control for IDE activator project, biochemical, fluorescence polarization (AID 588442); assay type: functional, cell-based; settings: Homo sapiens
Insulin-degrading enzyme [15] = molecular target: T3, Insulin-degrading enzyme (Homo sapiens, UniProt P14735); test: activators of endogenous IDE in HEK cells, dose response, cell-based, fluorescence polarization (AID 588439); assay type: functional
T3 sequence (P14735 whole entry): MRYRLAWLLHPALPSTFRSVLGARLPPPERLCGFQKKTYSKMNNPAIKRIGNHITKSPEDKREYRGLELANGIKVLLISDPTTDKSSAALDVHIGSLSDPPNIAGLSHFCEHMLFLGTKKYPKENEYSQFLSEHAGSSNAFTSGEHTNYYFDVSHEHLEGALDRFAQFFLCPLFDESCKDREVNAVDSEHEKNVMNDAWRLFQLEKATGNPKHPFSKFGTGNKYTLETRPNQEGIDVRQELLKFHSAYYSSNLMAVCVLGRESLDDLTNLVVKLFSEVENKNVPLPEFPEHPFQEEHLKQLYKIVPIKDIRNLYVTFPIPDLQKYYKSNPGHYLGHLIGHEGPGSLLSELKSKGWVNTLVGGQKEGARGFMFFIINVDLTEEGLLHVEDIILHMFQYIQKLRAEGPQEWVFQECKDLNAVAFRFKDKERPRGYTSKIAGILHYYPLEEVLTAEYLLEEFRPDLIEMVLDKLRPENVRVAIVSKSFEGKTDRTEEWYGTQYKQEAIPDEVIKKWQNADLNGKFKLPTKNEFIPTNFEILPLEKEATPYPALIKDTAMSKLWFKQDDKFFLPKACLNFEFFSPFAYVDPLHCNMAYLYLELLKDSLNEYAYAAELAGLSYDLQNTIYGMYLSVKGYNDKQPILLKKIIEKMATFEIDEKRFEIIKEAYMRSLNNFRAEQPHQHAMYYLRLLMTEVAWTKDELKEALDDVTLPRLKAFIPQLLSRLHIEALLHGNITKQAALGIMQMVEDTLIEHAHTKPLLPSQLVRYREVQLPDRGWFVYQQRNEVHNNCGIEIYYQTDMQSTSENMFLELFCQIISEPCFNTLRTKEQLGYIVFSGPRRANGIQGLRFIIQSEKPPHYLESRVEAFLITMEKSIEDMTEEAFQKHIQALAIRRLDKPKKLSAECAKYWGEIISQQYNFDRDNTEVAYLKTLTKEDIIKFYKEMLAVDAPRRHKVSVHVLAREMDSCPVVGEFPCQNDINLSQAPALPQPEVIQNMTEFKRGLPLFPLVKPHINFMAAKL

Insulin-degrading enzyme [16] = molecular target: T3, Insulin-degrading enzyme; test: activators of recombinant IDE enzyme, dose response, counter-screen for IDE activator project, biochemical, fluorescence polarization (AID 588681)

Clc1ccccc1Nc1nc(-c2cccnc2)cs1
IC50 [1]: > 67.5 µM (inactive)
IC50 (HEK293 [2]): > 67.5 µM (inactive)

Cc1cc(Cl)c2oc(C(=O)N3CCN(c4ccncc4)CC3)c(C)c2c1
EC50 [3]: 7.17 µM (active)
EC50 [4]: 1.28 µM (active)
EC50 [5]: 86.2 µM (inactive)

COc1cccc(Cn2c(-c3nonc3N)nc3ccccc32)c1
EC50 (BJ): 0.455 µM (active)
EC50 [6]: 9.54 µM (active)
EC50 [7]: 24.7 µM (active)
EC50 [8]: 2.69 µM (active)

Cc1ccc(S(=O)(=O)N(C)c2ccc(OCC(=O)Nc3nnc(C4CC4)s3)cc2)cc1
EC50 [9]: > 150 µM (inactive)
EC50 (Mucolipin-3): 4.38 µM (active)
EC50 [10]: > 150 µM (inactive)
EC50 (Ion channel NompC): > 29.9 µM (not active)
EC50 [11]: 3.05 µM (active)
EC50 [12]: > 180 µM (inactive)

NC(=O)CC(NC(=O)c1ccccc1)c1ccc(NCCCN2CCCC2=O)c([N+](=O)[O-])c1 (stereo not given)
EC50 [5]: 1.4 µM (active)

COc1cc(CNC2CCCC2)cc(OC)c1OC
IC50 (HEK293 [13]): > 89.1 µM (inactive)
EC50 (HEK293 [14]): > 54.7 µM (inactive)
EC50 (Insulin-degrading enzyme [15]): > 54.7 µM (inactive)
EC50 (Insulin-degrading enzyme [16]): > 54.7 µM (inactive)
